Reference: patent publication US20230027072A1, “IMPROVED METHODS, KITS, COMPOSITIONS AND DOSING REGIMENS FOR THE USE OF HETEROCYCLIC INHIBITORS OF ERK1 AND ERK2” (Asana Biosciences, LLC, priority 2019, published 2023)
pIC50: −log10 of the molar value. Where two headings read alike, the source gives them in different places. Each block holds one compound with its values, some of them ahead of it.

Tests used:
[1] = system: HCT116 (colorectal carcinoma, K Ras G13D) cells; experiment: Cell proliferation (Alamar Blue) assay, HCT116; format: cell-based, human
Procedure: (§1) Cell Proliferation (Alamar Blue) Assay
(§2) HT-29 (colorectal carcinoma, B-RafV600E), HCT116 (colorectal carcinoma, K Ras G13D), A375 (melanoma, B-RafV600E) and SK-Mel2 (melanoma, NRAS Q61R) cells (obtained from ATCC, USA) were seeded (5000 cells/well) in 96-well tissue culture plate and incubated at 37° C./5% CO2 for 16-24 hours. The cells were then treated with compounds, at concentrations typically from 0.0005 to 10 uM prepared in 3-fold serial dilutions. The plates were then incubated for 72 h at 37° C./5% CO2 in a moist environment. Then Alamar Blue™ reagent (final concentration 1×) was added to each well and incubated for 1-3 h at 37° C./5% CO2. The plates were read on fluorescence reader at 540 nm excitation and 590 nm emission wavelengths. The IC50 values were subsequently determined using a sigmoidal dose-response curve (variable slope) using GraphPad Prism® 5 software. Compounds of the present disclosure caused inhibition of HT-29, HCT116, A375 and SK-Mel2 cell proliferation as determined in these assays.

[2] = system: phosphorylation of RSK1(S380) (the downstream target of ERK1/2); experiment: Mechanistic (phospho-RSK1(S380) ELISA) assay in HT-29 cells; format: cell-based, human; details: 2 h treatment, read-out: Mechanistic Cell Assay RSK1 Phos HT29 IC50
Procedure: Mechanistic (Phospho-RSK1(5380) ELISA) Assay
HT-29 cells (colorectal carcinoma, B-RafV600E); obtained from ATCC, USA) were seeded (60,000 cells/well) in a 96-well plate and incubated at 37° C./5% CO2 overnight and then treated with desired compound dilutions for 2 h. Medium was removed and cells were rinsed once with ice-cold 1×PBS, then 0.070 mL ice-cold 1× cell lysis buffer containing 1 mM PMSF was added to each well and the plate was incubated on a shaker for 2 h and 30 min at 4° C. The plate was then centrifuged for 20 min (×4000 rpm) at 4° C. and the supernatant was transferred to a new plate. Cell lysates were diluted with sample diluent at a ratio of 1:1. The ELISA was then carried out following the manufacturer's protocol (PathScan® phospho-RSK1(Ser380) Sandwich ELISA Kit, Cell Signaling Technologies). The plate was read at 450 nm within 30 min after adding STOP solution. The IC50 values were subsequently determined using a sigmoidal dose-response curve (variable slope) in GraphPad Prism® 5 software. Compounds of the present disclosure inhibited phosphorylation of RSK1(5380) (the downstream target of ERK1/2) as determined in this assay.

[3] = system: HT-29 (colorectal carcinoma, B-RafV600E) cells; experiment: Cell proliferation (Alamar Blue) assay, HT-29; format: cell-based, human; details: read-out: Cell Proliferation Assay HT29 IC50
Procedure: as §1, §2

ERK2 = molecular target: T1, ERK2 (Homo sapiens, UniProt P28482); experiment: ERK2 HTRF (biochemical) assay
T1 construct: purchased Jubilant Biosys
Procedure: ERK1 and ERK2 HTRF (Biochemical) Assays
The assays described below employed a homogeneous time resolved fluorescence (HTRF) technique. The compounds were serially diluted by half-log with concentrations ranging from 0.0005 to 10 uM in the assay buffer (50 mM Tris pH-7.5, 1 mM EGTA, 2 mM DTT, 10 mM MgCl2, 0.1% Tween-20) and 20 uL of substrate-ATP mix [1 uM Biotin—LC-Myelin Basic Protein (MBP) derivatized Peptide (Anaspec)-24 uM ATP (Sigma)] was added to each well of the assay plate. Then 10 uL of enzyme mix [25 nM ERK1 or ERK2 (Jubilant Biosys) in assay buffer] was added to each well. The plate was incubated at room temperature for 60 min with shaking. The HTRF mix [625 nM LANCE® Ultra Europium-anti-phospho-MBP (Perkin Elmer) and 2 nM Phycolink® Streptavidin-Allophycocyanin (SA-APC) (Prozyme) in HTRF buffer (50 mM Tris-HCl pH-7.5, 100 mM NaCl, 0.1% BSA, 0.05% Tween20, 0.5 mM EDTA)] was prepared and 75 uL of this mix was added to the HTRF plate. After incubation for 60 min at room temperature, 10 uL of the reaction mixture was transferred to the HTRF assay plate and incubated for 45 min at room temperature with shaking. Plate was read using Pherastar in HTRF mode (excitation 337 nm, emission 665 & 620 nm). The IC50 values (half maximal inhibitory concentration values) were subsequently determined using a sigmoidal dose-response curve (variable slope) in GraphPad Prism® 5 software.

[4] = Phase 1 clinical study, pharmacokinetics (Example 39); format: in vivo; details: human; for AUC / Cmax: plasma, oral, Day 15; for AUC: read-out: AUCtau, mean (CV %); for Cmax: read-out: Cmax, mean (CV %)
Source text: This human clinical study is designed to determine the maximum tolerated dose of the compound of Example 349 [S)—N-(2-Amino-1-(3-chloro-5-fluorophenyl)ethyl)-1-(5-methyl-2-((tetrahydro-2H-pyran-4-yl)amino)pyrimidin-4-yl)-1H-imidazole-4-carboxamide mandelic acid salt] and evaluate its safety, tolerability, pharmacokinetics and pharmacodynamics. This study is an open-label, non-randomized uncontrolled, multicenter, dose escalation, and cohort expansion study in subjects with histologically or cytologically confirmed advanced solid tumors for which no standard therapy exists. The compound of Example 349 was formulated as described in Example 35 above for administration to the study subjects.
Daily dosing: This part of the study was conducted using an accelerated titration design in which patients were dosed once daily in cycles of 3 weeks. The accelerated phase of the study included single-patient cohorts and escalation increases of 100% up to 80 mg/day dose cohorts in the absence of DLTs or ≥Grade 2 drug-related toxicity. In the absence of any DLTs or ≥Grade 2 drug-related toxicity, the conventional 3+3 design commenced at 80 mg/day dose level.
Weekly dosing: Once weekly dosing of subject in 3+3 escalating dose cohorts was explored as warranted by the emerging pharmacokinetics and clinical trial experience. Once weekly dose escalation increments were up to 50%, based on the absence of DLTs or ≥Grade 2 drug-related toxicity and the available tablet strengths. Initiation of escalating daily and weekly higher dose levels occurred only following safety data review and agreement by the Safety Review Committee.
Part A included and Part B will include a screening period (up to 21 days) and an estimated treatment period for up to 12 months. […] At the end of treatment, a post-treatment period of 4 weeks will commence that concludes with an end-of-study visit.
The pharmacokinetics of the compound of Example 349 was evaluated in the study subjects with solid tumors following once-daily oral administration at 10-80 mg or QW administration at 80-350 mg. […] With once-daily dosing, the accumulation in Cmax and AUCtau were approximately 2-fold based on the 40 mg data. With once-weekly administration, drug accumulation in plasma was minimal. […] Results of these pharmacokinetic studies are further illustrated in FIGS. 6 and 7, which show the plasma concentration-time profiles for the QD and QW regimens. FIGS. 6A and 6B show the plasma concentration over time for the compound of Example 349 measured on day 1 and day 15 for daily dosing at 10 mg/kg, 20 mg/kg, 40 mg/kg, 60 mg/kg and 80 mg/kg. […] FIGS. 7A and 7B show the plasma concentration over time for the compound of Example 349 measured on day 1 and day 15 for weekly dosing at 80 mg/kg, 120 mg/kg, 180 mg/kg, 250 mg/kg and 350 mg/kg.

[5] = 40 mg daily (MTD for QD regimen)
[6] = 250 mg weekly (MTD for QW regimen)

T1 sequence (P28482 whole entry): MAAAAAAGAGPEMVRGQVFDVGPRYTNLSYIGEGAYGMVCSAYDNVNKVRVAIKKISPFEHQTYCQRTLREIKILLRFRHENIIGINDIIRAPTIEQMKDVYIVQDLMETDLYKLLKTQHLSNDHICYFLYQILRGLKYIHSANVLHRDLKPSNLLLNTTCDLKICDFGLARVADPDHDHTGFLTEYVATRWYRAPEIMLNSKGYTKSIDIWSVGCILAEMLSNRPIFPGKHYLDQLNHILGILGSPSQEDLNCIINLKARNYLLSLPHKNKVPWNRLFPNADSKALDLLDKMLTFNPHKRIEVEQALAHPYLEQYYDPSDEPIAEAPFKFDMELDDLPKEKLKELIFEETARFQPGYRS

Compound: 1-(2- (benzo[d][1,3]diox- ol-5-ylamino)-5- methylpyrimidin-4- yl)-N-(1-(4- fluorophenyl)-2- hydroxyethyl)-1H- pyrrole-3- carboxamide [Example 172]
pIC50 ([1]; 72 h): 6.30 to 6.60
pIC50 [2]: 6.60 to 7.00

Compound: Cc1cnc(Nc2ccc(F)cc2)cc1-n1cnc(C(=O)NC(CN)c2ccccc2)c1 (single isomer, unassigned) [Example 227, N-(2-amino-1-phenylethyl)-1-(2-((4-fluorophenyl)-amino)-5-methyl-pyridin-4-yl)-1H-imidazole-4-carboxamide]
pIC50 ([3]; Homo sapiens, HT-29, 72 h): 6.60 to 7.00

Compound: Cc1cnc(Nc2ccc(F)cc2Cl)nc1-n1ccc(C(=O)N[C@H](CO)c2cccc(Cl)c2)c1 [Compound 29, (S)-1-(2-((2-Chloro-4-fluorophenyl)amino)-5-methylpyrimidin-4-yl)-N-(1-(3-chlorophenyl)-2-hydroxyethyl)-1H-pyrrole-3-carboxamide]
pIC50 ([1]; 72 h): 5.60 to 6.30

Compound: Cc1cnc(Nc2ccc3c(c2)OC(F)(F)O3)cc1-n1cc(C(=O)NC(CN)Cc2ccccc2)nn1 (stereo not drawn) [Compound 134]
pIC50 (ERK2): 5.60 to 6.30

Compound: Cc1cnc(Nc2ccc(F)cc2)cc1-n1cnc(C(=O)NC(CN)c2ccccc2)c1 (stereo not drawn) [Compound 191, N-(2-amino-1-phenylethyl)-1-(2-((4-fluorophenyl)amino)-5-methylpyridin-4-yl)-1H-imidazole-4-carboxamide]
pIC50 ([3]; Homo sapiens, HT-29, 72 h): 6.30 to 6.60
pIC50 ([1]; Homo sapiens, HCT-116, 72 h): 5.60 to 6.30

Compound: Cc1cnc(Nc2ccc3occc3c2)nc1-n1ccc(C(=O)NC(CO)c2cccc(Cl)c2)c1 (stereo not drawn) [Example 68, 1-(2-(benzofuran-5-ylamino)-5-methylpyrimidin-4-yl)-N-(1-(3-chlorophenyl)-2-hydroxyethyl)-1H-pyrrole-3-carboxamide]
pIC50 ([3]; Homo sapiens, HT-29, 72 h): 6.60 to 7.00
pIC50 ([1]; Homo sapiens, HCT-116, 72 h): 6.60 to 7.00
pIC50 ([2]; Homo sapiens, HT-29, 2 h): ≥ 7.00

Compound: Cc1cnc(N[C@H]2CC[C@H](O)CC2)nc1-n1cnc(C(=O)N[C@H](CO)c2cccc(Cl)c2)c1 [Example 242, N-((S)-1-(3-chlorophenyl)-2-hydroxyethyl)-1-(2-(((1r,4S)-4-hydroxy-cyclohexyl)amino)-5-methyl-pyrimidin-4-yl)-1H-imidazole-4-carboxamide]
pIC50 ([1]; Homo sapiens, HCT-116, 72 h): 5.60 to 6.30
pIC50 ([2]; Homo sapiens, HT-29, 2 h): 6.30 to 6.60

Compound: Cc1cnc(NC2CCOCC2)nc1-n1cnc(C(=O)NC(c2cccc(Cl)c2)C(C)O)c1 (stereo not drawn) [Example 252, N-(1-(3-chlorophenyl)-2-hydroxypropyl)-1-(5-methyl-2-((tetrahydro-2H-pyran-4-yl)amino)-pyrimidin-4-yl)-1H-imidazole-4-carboxamide]
pIC50 ([1]; 72 h): 6.30 to 6.60
pIC50 [2]: 6.60 to 7.00

Compound: N-(1-(3-chloro- phenyl)-2-hydroxy- ethyl)-1-(2-((3- fluoro-2-methoxy- phenyl)amion)-5- methylpyrimidin-4- yl)-1H-pyrrole-3- carboxamide [Example 143]
pIC50 ([1]; 72 h): 6.30 to 6.60
pIC50 [2]: 6.30 to 6.60

Compound: N-((1s,3s)-1-(3- chlorophenyl)-3- hydroxycyclo- butyl)- 1-(5-methyl-2- ((tetrahydro-2H-4- yl)amino)pyrimi- din-4-yl)-1H- imidazole-4- carboxamide [Example 245]
pIC50 [2]: 6.30 to 6.60

Second part, led by results:

pIC50 ([3]; 72 h): 6.30 to 6.60
pIC50 ([1]; 72 h): 5.60 to 6.30
pIC50 [2]: 6.30 to 6.60
Compound: Cc1cnc(NC2CCOCC2)nc1-n1cnc(C(=O)NC(CN)c2ccc(Cl)s2)c1 (single isomer, unassigned; enantiomer #2) [Example 291, N-(2-amino-1-(5-chlorothiophen-2-yl)ethyl)-1-(5-methyl-2-((tetrahydro-2H-pyran-4-yl)amino)pyrimidin-4-yl)-1H-imidazole-4-carboxamide (enantiomer #2)]

pIC50 ([1]; 72 h): < 5.60
pIC50 [2]: 5.60 to 6.30
Compound: Cc1cnc(NC2CCOCC2)nc1-n1cnc(C(=O)NC(c2cccc(Cl)c2)C(C)O)c1 (stereo not drawn) [Example 253, N-(1-(3-chlorophenyl)-2-hydroxypropyl)-1-(5-methyl-2-((tetrahydro-2H-pyran-4-yl)amino)-pyrimidin-4-yl)-1H-imidazole-4-carboxamide]

pIC50 ([2]; Homo sapiens, HT-29, 2 h): 6.60 to 7.00
Compound: Cc1cnc(NC2CCOCC2)nc1-n1cnc(C(=O)NC(CN)c2ccc(Cl)s2)c1 (stereo not drawn) [Example 274, N-(2-amino-1-(5-chlorothiophen-2-yl)ethyl)-1-(5-methyl-2-((tetrahydro-2H-pyran-4-yl)amino)pyrimidin-4-yl)-1H-imidazole-4-carboxamide]

AUCtau values, dependence on dose ([4]; in vivo): dose dependent
Cmax values, dependence on dose ([4]; in vivo): dose dependent
Total CL/F, dependence on dose ([4]; in vivo): independent of dose levels
Vd/F, dependence on dose ([4]; in vivo): independent of dose levels
Tmax ([4]; in vivo, po): 1 to 4 h
half-life ([4]; in vivo, po): ~25 h
Compound: Cc1cnc(NC2CCOCC2)nc1-n1cnc(C(=O)N[C@H](CN)c2cc(F)cc(Cl)c2)c1 [Example 349]
AUC [4, 5]: 492 ng·h/mL
Cmax [4, 5]: 61.5 ng/mL
AUC [4, 6]: 5500 ng·h/mL
Cmax [4, 6]: 495 ng/mL
